Values of other authors, collected in US20140200276A1 (iCeutica, Inc., priority 2009, published 2014).

COc1ccc2cc([C@H](C)C(=O)O)ccc2c1 [naproxen]
administered dose excreted in the feces (in vivo): ≤ 3% | excreted in the urine as 6-O-desmethyl naproxen (in vivo): < 1% | naproxen from any dose excreted in the urine (total): Approximately 95% | excreted in the urine as naproxen (unchanged naproxen): < 1%
